The subject of assay [1] is schizophrenic model (MK-801) mice. Description: Novel object recognition test (NORT), MK-801 schizophrenic model, Example 2. Format: in vivo, C57BL/6J mice. On the procedure: (§1) Inbred C57BL/6J (B6J) mice were purchased from Charles River Laboratories Japan, Inc. (Kanagawa, Japan). The mice were housed four by four in standard cages and reared on a 12-hour light/dark cycle (lights on at 8:00 and off at 20:00) in a room where temperature and humidity were controlled. The mice had free access to standard laboratory chow MF (ORIENTAL YEAST Co., Ltd., Tokyo, Japan) and water. No special environmental enrichment was provided in the home cage. Behavioral testing was performed using males from 10:00 to 18:00.
(§2) MK-801 (FUJIFILM Wako Pure Chemical Corporation, Osaka, Japan) was diluted with physiological saline to a concentration of 1 mg/ml to prepare a stock solution, which was stored at −80° C. The MK-801 stock solution (1 mg/ml) was then further diluted with physiological saline to 20 μg/ml and stored at −20° C. as a solution for administration. The MK-801 administration solution (20 μg/ml) was thawed on the day of administration and used for administration to mice. The MK-801 administration solution (20 μg/ml) was used within one week after freezing. MK-801 is an antagonist of an NMDA (glutamatergic N-methyl-D-aspartate) receptor. Chronic administration of MK-801 to mice causes a decrease in spine density and abnormal behavior similar to schizophrenia in mice. Mice to which MK-801 was chronically administered were used as a disease model of schizophrenia. Mice to which physiological saline was administered instead of MK-801 were used as a healthy model.
(§3) Pemafibrate (Toronto Research Chemicals, Tronto, Canada) was diluted with DMSO to a concentration of 30 mg/ml and stored as a stock solution at −80° C. On the day of administration, the pemafibrate stock solution (30 mg/ml) was diluted with corn oil (Sigma-Aldrich, USA) to a concentration of 0.1 mg/ml and used for administration to mice. As a control, a DMSO solution prepared by diluting DMSO in corn oil was used for administration to mice (DMSO:corn oil=1:300).
(§4) MK-801 (0.2 mg/kg/day) or physiological saline was intraperitoneally administered to 6-week-old C57BL/6J mice (males) once a day for 2 weeks. […]

Assay [2] has the same test system. Description: Spine density analysis, examination of therapeutic method, Example 3. The class given is in vivo, C57BL/6J mice. On the procedure: (§5) Animals and reagents the same as in Example 2 were used.
(§6) MK-801 (0.2 mg/kg/day) or physiological saline was intraperitoneally administered to 6-week-old C57BL/6J mice (males) once a day for 2 weeks. Mice to which MK-801 was administered and mice to which physiological saline was administered were each divided into two groups, to which pemafibrate (0.3 mg/kg/day) or solvent (DMSO solution) was orally administered once a day for one week.
(§7) Sampling for spine density analysis was performed after completion of NORT. Spine density analysis was performed using a group of 6 mice. Spine density analysis was performed in a manner similar to that in Example 2.
(§8) In the examination of the therapeutic method, a schizophrenic model in which MK-801 was administered to 6-week-old mice for 2 weeks was used (see upper parts in FIGS. 9 and 10). In the healthy model, physiological saline (saline) was administered instead of MK-801.

Assay [3] deals with mouse microglial cell line MG6. Description: qRT-PCR of cytokine expression in microglial cell line MG6 (Example 1). The class given is cell-based. The conditions noted are these: MG6 cells, 0.03 μM or 0.1 μM, 24 hours, qRT-PCR normalized with Gapdh. Here is the method: A mouse microglial cell line MG6 was used for experiments. MG6 was seeded on a 12-well plate at 5×10^4 cells/well using a DMEM (high glucose) medium containing 10% of FBS, 10 μg/ml of insulin, and 0.1 mM of 2-mercaptoethanol. The seeded MG6 was cultured in an incubator at 37° C. and a CO2 concentration of 5%. After 24 hours from the start of culture, drugs were added as follows. First, pemafibrate as the PPARα agonist was diluted with DMEM (high glucose) medium to have a final concentration of 0.03 μM or 0.1 μM using dimethylsulfoxide (DMSO) as a solvent. Then, the total amount of the medium of the well in which MG6 was seeded was replaced with the medium containing 0.03 μM or 0.1 μM of pemafibrate, or a medium to which DMSO was added as a control. Cells were collected additional 24 hours after the medium replacement.
Total RNA was extracted from the collected cells using RNeasy Mini kit (Qiagen). Reverse transcription of the total RNA was performed using GeneAce cDNA Synthesis Kit (FUJIFILM Wako Pure Chemical Corporation). THUNDERBIRD (trade name) SYBR qPCR Mix (Toyobo) was used to perform qRT-PCR by ABI7500 Real Time PCR system (Thermo Fisher Scientific). Relative gene expression was calculated by a ΔCt method and normalized with Gapdh. The following primers were used.

In assay [4] the test system is schizophrenic model (MK-801) mice. Description: Spine density analysis, examination of prophylaxis, Example 3. Format: in vivo, C57BL/6J mice. The note with it: FIG. 12. Here is the method: as §5
(§9) Examination of prophylaxis: Pemafibrate (0.3 mg/kg/day) or solvent (DMSO solution) was orally administered to 6-week-old C57BL/6J mice (males) once a day for 2 weeks. Mice to which pemafibrate was administered and mice to which DMSO was administered were each divided into two groups, to which MK-801 (0.2 mg/kg/day) or physiological saline was intraperitoneally administered once a day for two weeks.
as §7
(§10) In the examination of the prophylaxis, pemafibrate was administered to 6-week-old mice for 2 weeks, and then MK-801 was administered thereto for 2 weeks (see upper parts in FIG. 11 and FIG. 12). In the healthy model, physiological saline (saline) was administered instead of MK-801.

Assay [5] shares this test system. Description: Spine density analysis of prefrontal cortex pyramidal cells, Example 2. The class given is in vivo, C57BL/6J mice. On the procedure:
as §1, §2, §3, §4

Assay [6] has the same test system. Description: NORT, examination of therapeutic method, Example 3. The class given is in vivo, C57BL/6J mice. The conditions noted are these: FIG. 9. On the procedure: as §5, §6
(§11) NORT was performed using a group of 12 mice. NORT was performed in a manner similar to that in Example 1.
as §8

Assay [7] has the same test system. Description: NORT, examination of prophylaxis, Example 3. The class given is in vivo, C57BL/6J mice. The conditions noted are these: FIG. 11. On the procedure: as §5, §9, §11, §10
Where [8] appears, read: prophylaxis: pemafibrate 0.3 mg/kg/day oral 2 weeks, then MK-801 2 weeks, group (4).
The mark [9] stands for this setting: schizophrenic model (MK-801(+)), pemafibrate 0.3 mg/kg/day oral 1 week, FIG. 8.

Turning to `CC[C@@H](Oc1cccc(CN(CCCOc2ccc(OC)cc2)c2nc3ccccc3o2)c1)C(=O)O` [pemafibrate], the “NORT dwell time around new object compared with familiar object” value is “significantly longer” in assay [1] (healthy model (MK-801(-)), pemafibrate 0.3 mg/kg/day oral 1 week, FIG. 6); “significantly longer” in assay [1] (schizophrenic model (MK-801(+)), pemafibrate 0.3 mg/kg/day oral 1 week after MK-801, FIG. 6); “significantly longer” in assay [6] (therapeutic: healthy models (saline), with pemafibrate); “significantly longer” in assay [6] (therapeutic: schizophrenic model group (4), pemafibrate 0.3 mg/kg/day oral 1 week after MK-801 2 weeks); “significantly longer” in assay [7] (prophylaxis: healthy models (saline), with pemafibrate); “significantly longer” in assay [7] (setting [8]). For the same molecule, the “effect on spine density of schizophrenic model” value in assay [2] (therapeutic: group (4) vs non-administration group (3), FIG. 10) was “restores the spine density”. Also, the “spine density compared with healthy models” value was “no significant difference” in assay [2] (therapeutic: schizophrenic model group (4), pemafibrate 0.3 mg/kg/day oral 1 week after MK-801, FIG. 10) and “no significant difference” in assay [4] (setting [8]). Besides, the “expression of inflammatory cytokines (IL-1b, Tnfa)” value in assay [3] (FIG. 1) is “inhibits the expression”. Moreover, the “expression of anti-inflammatory cytokines (IL-4, IL-10)” value in assay [3] (FIG. 2) is “inhibits the expression”. Further, the “decrease in spine density caused by MK-801” value in assay [4] (prophylaxis: group (4) vs non-administration group (3)) is listed as “suppressed”. In assay [5] (setting [9]), the “spine density compared with healthy model” value is “no significant difference”. Moreover, the “spine density compared with pemafibrate non-administration group of schizophrenic model” value in assay [5] (setting [9]) is reported as “significantly increased”.

As to `C[C@]12N[C@H](Cc3ccccc31)c1ccccc12` [MK-801], the “NORT dwell time, new object vs familiar object” value in assay [1] (MK-801 0.2 mg/kg/day i.p. 2 weeks, no pemafibrate, FIG. 5) was “no significant difference”. Further, in assay [5] (MK-801 0.2 mg/kg/day i.p. 2 weeks, no pemafibrate, FIG. 7), the “spine density compared with healthy model (saline)” value is listed as “significantly reduced”.

Values taken from patent US20260272889A1, “COGNITIVE FUNCTION-IMPROVING AGENT AND PHARMACEUTICAL COMPOSITION FOR TREATING OR PREVENTING COGNITIVE DYSFUNCTION” (TOHOKU UNIVERSITY, priority 2022, published 2026).
